# Test results as given in patent US8708475B2, “Ultraviolet crosslinking inkjet ink, ink cartridge containing same, and image forming method and apparatus using same” (Ricoh Company, Ltd., priority 2010, dated 2014).
# “Also recorded” adds a separate entry of the source. Where two headings read alike, the source gives them in different places.
# Key:
# mice [1] = details: mouse, in vivo
# [2] = maximization method, Contact Dermatitis 8 223-235 (1982); cited from earlier work
# [3] = in vivo; cited from earlier work
# mice [4] = assay: LLNA method skin sensitization test (OECD Test Guideline 429), stimulation index from BrdU content of auricular lymph nodes; details: mouse, in vivo
# [5] = described in the MSDS; cited from earlier work
compound,measurement,setting,value
C=C(C)C(=O)OCCCCC [n-Pentyl methacrylate],"SI value, bound stated for listed methacrylates",mice [1],less than 3
same,skin sensitization potential,[2],negative skin sensitization potential
C=C(C)C(=O)OC(C)(C)C [t-Butyl methacrylate],"SI value, bound stated for listed methacrylates",mice [1],less than 3
same,skin sensitization potential,[2],negative skin sensitization potential
C=C(C)C(=O)OCC(CC)(COC(=O)C(=C)C)COC(=O)C(=C)C [Trimethylolpropane trimethacrylate],skin irritation potential (in words),[3],low skin irritation potential
same,skin sensitization potential (in words),mice [4],low skin sensitization potential
Polyethylene glycol (400) dimethacrylate,"SI value, bound stated for listed methacrylates",mice [1],less than 3
Polyethylene glycol (600) dimethacrylate,"SI value, bound stated for listed methacrylates",mice [1],less than 3
C=C(C)C(=O)OCCCCCC [n-Hexyl methacrylate],"SI value, bound stated for listed methacrylates",mice [1],less than 3
same,skin sensitization potential,[2],negative skin sensitization potential
C=CC(=O)OCC(CC)(COC(=O)C=C)COC(=O)C=C [Trimethylolpropane triacrylate],skin irritation potential (in words),[3],high skin irritation potential
C=C(C)C(=O)OCC(C)(C)COC(=O)C(=C)C [Neopentyl glycol dimethacrylate],"SI value, bound stated for listed methacrylates","mice [1]; female, 3 days",less than 3
CSc1ccc(C(=O)C(C)(C)N2CCOCC2)cc1 [2-Methyl-1-[4-(methylthio)phenyl]-2-morphorinopropane-1-one],skin sensitization potential,[5],no skin sensitization potential; also recorded: pane-1-one (nega-
